Patent US8143304B2, “(3-amino-1,2,3,4-tetrahydro-9 H-carbazol-9-yl)-acetic acid derivatives” (Actelion Pharmaceutical Ltd., priority 2006, dated 2012)

Target: T1, hCRTH2 receptor (Homo sapiens, UniProt Q9Y5Y4)
T1 construct: expressed in transfected cells; host or cells: clonal HEK 293 cell line (membrane preparation)
T1 sequence (Q9Y5Y4 1-395): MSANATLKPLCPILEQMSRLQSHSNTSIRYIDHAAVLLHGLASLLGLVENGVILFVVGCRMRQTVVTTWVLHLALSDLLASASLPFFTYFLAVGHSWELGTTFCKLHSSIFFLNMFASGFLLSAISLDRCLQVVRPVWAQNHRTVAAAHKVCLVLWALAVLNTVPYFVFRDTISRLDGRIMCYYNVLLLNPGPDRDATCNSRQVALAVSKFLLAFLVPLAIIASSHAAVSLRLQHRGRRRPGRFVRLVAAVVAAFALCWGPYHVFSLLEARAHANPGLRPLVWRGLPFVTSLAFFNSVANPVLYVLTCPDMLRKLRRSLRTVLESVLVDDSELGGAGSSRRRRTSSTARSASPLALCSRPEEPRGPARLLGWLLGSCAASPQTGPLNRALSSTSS
Test: hCRTH2 receptor membranes radioligand binding assay ({3H}-PGD2)
Conditions: {3H}-PGD2 2.5 nM, membranes of HEK 293 cells expressing recombinant hCRTH2 receptor; read-out: hCRTH2 Bdg IC50
Method: The biological effect of such compounds may be tested in a variety of in vitro, ex vivo and in vivo assays.
Biological Assays: Preparation of hCRTH2 Receptor Membranes and Radioligand Binding Assay:
Cells are detached from culture plates in 5 ml buffer A per plate (5 mM Tris, pH 7.4, 1 mM MgCl2, 0.1 mM PMSF, 0.1 mM phenanthroline) using a police rubber and transferred into centrifugation tubes and frozen at −80° C. After thawing, the cells are centrifuged at 500 g for 5 min and then resuspended in buffer A. Cells are then fragmented by homogenization with a Polytron cell homogenizer for 30 s. The membrane fragments are collected by centrifugation at 3000 g for 40 min and resuspended in buffer B (50 mM Tris, pH 7.4, 25 mM MgCl2, 250 mM saccharose) and aliquots are stored at […].
Binding assay is performed in a total volume of 250 μl. […] For unspecific binding, PGD2 is added to the reaction mixture at 1 μM final concentration. This binding assay mix is incubated at rt for 90 min and then filtered through a GF/C filter plate. The filter is washed three times with ice cold binding buffer C. Then, Microscint-40 (Packard, 40 μl/well) is added and the receptor bound radioactivity is quantified by scintillation counting in a “TopCount” benchtop microplate scintillation counter (Packard).

IC50 | SMILES
47 nM | O=C(O)Cn1c2c(c3cc(F)ccc31)C[C@@H](NC(=O)CCc1cccc(OC(F)(F)F)c1)CC2 [(3S)-{6-Fluoro-3-[3-(3-trifluoromethoxy-phenyl)-propionylamino]-1,2,3,4-tetrahydro-9H-carbazol-9-yl}-acetic acid]
15 nM | O=C(O)Cn1c2c(c3cc(F)ccc31)C[C@@H](NC(=O)CCc1cc(C(F)(F)F)ccc1C(F)(F)F)CC2 [(3S)-{3-[3-(2,5-Bis-trifluoromethyl-phenyl)-propionylamino]-6-fluoro-1,2,3,4-tetrahydro-9H-carbazol-9-yl}-acetic acid]
9 nM | O=C(O)Cn1c2c(c3cc(F)ccc31)C[C@@H](NC(=O)COc1ccc(Cl)cc1)CC2 [(3S)-{3-[2-(4-Chloro-phenoxy)-acetylamino]-6-fluoro-1,2,3,4-tetrahydro-9H-carbazol-9-yl}-acetic acid]
6 nM | COCCN(C(=O)CCc1ccccc1OC)[C@H]1CCc2c(c3cc(F)ccc3n2CC(=O)O)C1 [(3S)-(6-Fluoro-3-{(2-methoxy-ethyl)-[3-(2-methoxy-phenyl)-propionyl]-amino}-1,2,3,4-tetrahydro-9H-carbazol-9-yl)-acetic acid]
824 nM | O=C(O)Cn1c2c(c3cc(F)ccc31)C[C@@H](NC(=O)c1cc3ccccc3[nH]1)CC2 [(3S)-{6-Fluoro-3-[(1H-indole-2-carbonyl)-amino]-1,2,3,4-tetrahydro-9H-carbazol-9-yl}-acetic acid]
896 nM | CCCCNC(=O)N[C@H]1CCc2c(c3ccccc3n2CC(=O)O)C1 [(3S)-[3-(3-Butyl-ureido)-1,2,3,4-tetrahydro-9H-carbazol-9-yl]-acetic acid]
14 nM | CSc1ccc(CCC(=O)N[C@H]2CCc3c(c4cc(F)ccc4n3CC(=O)O)C2)cc1 [(3S)-{6-Fluoro-3-[3-(4-methylsulfanyl-phenyl)-propionylamino]-1,2,3,4-tetrahydro-9H-carbazol-9-yl}-acetic acid]
400 nM | O=C(O)Cn1c2c(c3ccccc31)C[C@H](NC(=O)CCC1CCCC1)CC2 [(3R)-[3-(3-Cyclopentyl-propionylamino)-1,2,3,4-tetrahydro-9H-carbazol-9-yl]-acetic acid]
57 nM | O=C(O)Cn1c2c(c3cc(F)cc(Cl)c31)CC(NC(=O)CCc1ccccc1)CC2 (racemic)
26 nM | O=C(O)Cn1c2c(c3cc(C(F)(F)F)ccc31)CC(NC(=O)OCc1ccccc1)CC2 (racemic)
33 nM | O=C(O)Cn1c2c(c3cc(F)ccc31)C[C@@H](NC(=O)CCc1ccccc1O)CC2 [(3S)-{6-Fluoro-3-[3-(2-hydroxy-phenyl)-propionylamino]-1,2,3,4-tetrahydro-9H-carbazol-9-yl}-acetic acid]
6 nM | COc1cccc(NC(=O)CC(Cc2ccccc2)C(=O)N[C@H]2CCc3c(c4cc(F)ccc4n3CC(=O)O)C2)c1 (mixture of isomers) [(3S)-{3-[(RS)-2-Benzyl-3-(3-methoxy-phenylcarbamoyl)-propionylamino]-6-fluoro-1,2,3,4-tetrahydro-9H-carbazol-9-yl}-acetic acid]
15 nM | O=C(O)Cn1c2c(c3cc(F)ccc31)C[C@@H](NC(=O)CCc1ccc3c(c1)OCO3)CC2 [(3S)-[3-(3-Benzo[1,3]dioxol-5-yl-propionylamino)-6-fluoro-1,2,3,4-tetrahydro-9H-carbazol-9-yl]-acetic acid]
16 nM | CCN(C(=O)CCc1ccccc1)[C@H]1CCc2c(c3cc(F)ccc3n2CC(=O)O)C1 [(3S)-{6-Fluoro-3-[ethyl-(3-phenyl-propionyl)-amino]-1,2,3,4-tetrahydro-9H-carbazol-9-yl}-acetic acid]
16 nM | O=C(O)Cn1c2c(c3cc(F)ccc31)C[C@@H](NC(=O)CCc1ccc(Cl)cc1Cl)CC2 [(3S)-{3-[3-(2,4-Dichloro-phenyl)-propionylamino]-6-fluoro-1,2,3,4-tetrahydro-9H-carbazol-9-yl}-acetic acid]
488 nM | O=C(O)Cn1c2c(c3ccccc31)C[C@H](NC(=O)c1ccccc1)CC2 [(3R)-(3-Benzoylamino-1,2,3,4-tetrahydro-9H-carbazol-9-yl)-acetic acid]
39 nM | O=C(O)Cn1c2c(c3cc(F)ccc31)C[C@H](NC(=O)CCc1cccc(Cl)c1)CC2 [(3R)-{3-[3-(3-Chloro-phenyl)-propionylamino]-6-fluoro-1,2,3,4-tetrahydro-9H-carbazol-9-yl}-acetic acid]
21 nM | C[C@@H](Cc1ccccc1)C(=O)N(CCOc1ccccc1)[C@H]1CCc2c(c3cc(F)ccc3n2CC(=O)O)C1 [(3S)-{6-Fluoro-3-[((S)-2-methyl-3-phenyl-propionyl)-(2-phenoxy-ethyl)-amino]-1,2,3,4-tetrahydro-9H-carbazol-9-yl}-acetic acid]
72 nM | CS(=O)(=O)c1ccc(CCC(=O)N[C@H]2CCc3c(c4cc(F)ccc4n3CC(=O)O)C2)cc1 [(3S)-{6-Fluoro-3-[3-(4-methanesulfonyl-phenyl)-propionylamino]-1,2,3,4-tetrahydro-9H-carbazol-9-yl}-acetic acid]
61 nM | Cc1ccc(CCC(=O)N[C@@H]2CCc3c(c4cc(F)ccc4n3CC(=O)O)C2)cc1 [(3R)-[6-Fluoro-3-(3-p-tolyl-propionylamino)-1,2,3,4-tetrahydro-9H-carbazol-9-yl]-acetic acid]
11 nM | O=C(O)Cn1c2c(c3cc(F)ccc31)C[C@@H](NC(=O)C1Cc3ccccc3N1)CC2 (stereo partly drawn) [(3S)-{3-[(2,3-Dihydro-1H-indole-2-carbonyl)-amino]-6-fluoro-1,2,3,4-tetrahydro-9H-carbazol-9-yl}-acetic acid]
60 nM | CN(C(=O)COCc1ccccc1)[C@H]1CCc2c(c3cc(F)ccc3n2CC(=O)O)C1 [(3S)-{3-[(2-Benzyloxy-acetyl)-methyl-amino]-6-fluoro-1,2,3,4-tetrahydro-9H-carbazol-9-yl}-acetic acid]
147 nM | O=C(O)Cn1c2c(c3ccccc31)C[C@H](NC(=O)NS(=O)(=O)c1ccccc1)CC2 [(3R)-[3-(3-Phenylsulfonyl-ureido)-1,2,3,4-tetrahydro-9H-carbazol-9-yl]-acetic acid]
117 nM | O=C(O)Cn1c2c(c3ccccc31)C[C@@H](NC(=O)OCCOCc1ccccc1)CC2 [(3S)-[3-(2-Benzyloxy-ethoxycarbonylamino)-1,2,3,4-tetrahydro-9H-carbazol-9-yl]-acetic acid]
18 nM | COc1cccc2c1CC(C(=O)N[C@H]1CCc3c(c4cc(F)ccc4n3CC(=O)O)C1)CC2 (mixture of isomers) [(3S)-(6-Fluoro-3-{[(2RS)-8-methoxy-1,2,3,4-tetrahydro-naphthalene-2-carbonyl]-amino}-1,2,3,4-tetrahydro-9H-carbazol-9-yl)-acetic acid]
4 nM | CC(=O)N(CCc1ccccc1F)[C@H]1CCc2c(c3cc(F)ccc3n2CC(=O)O)C1 [(3S)-(3-{Acetyl-[2-(2-fluoro-phenyl)-ethyl]-amino}-6-fluoro-1,2,3,4-tetrahydro-9H-carbazol-9-yl)-acetic acid]
6 nM | O=C(O)Cn1c2c(c3cc(F)ccc31)C[C@@H](N(CC1CCCCC1)C(=O)NCc1ccccc1)CC2 [(3S)-[3-(3-Benzyl-1-cyclohexylmethyl-ureido)-6-fluoro-1,2,3,4-tetrahydro-9H-carbazol-9-yl]-acetic acid]
152 nM | O=C(O)Cn1c2c(c3ccccc31)C[C@H](NC(=O)Nc1cccc3ccccc13)CC2 [(3R)-[3-(3-Naphthalen-1-yl-ureido)-1,2,3,4-tetrahydro-9H-carbazol-9-yl]-acetic acid]
297 nM | O=C(O)Cn1c2c(c3ccccc31)C[C@H](NC(=O)Cc1cccs1)CC2 [(3R)-[3-(2-Thiophen-2-yl-acetylamino)-1,2,3,4-tetrahydro-9H-carbazol-9-yl]-acetic acid]

SMILES | IC50
CC(C)(C)OC(=O)Nc1cccc(CCC(=O)N[C@H]2CCc3c(c4cc(F)ccc4n3CC(=O)O)C2)c1 [(3S)-{3-[3-(3-tert-Butoxycarbonylamino-phenyl)-propionylamino]-6-fluoro-1,2,3,4-tetrahydro-9H-carbazol-9-yl}-acetic acid] | 93 nM
CC(C)COC(=O)N[C@H]1CCc2c(c3ccccc3n2CC(=O)O)C1 [(3S)-(3-Isobutoxycarbonylamino-1,2,3,4-tetrahydro-9H-carbazol-9-yl)-acetic acid] | 84 nM
O=C(O)Cn1c2c(c3cc(F)ccc31)C[C@@H](NC(=O)CC(c1ccccc1)c1ccccc1)CC2 [(3S)-[3-(3,3-Diphenyl-propionylamino)-6-fluoro-1,2,3,4-tetrahydro-9H-carbazol-9-yl]-acetic acid] | 2 nM
